From patent US20150306182A1, “FAT LOSS COMPOSITION” (priority 2012, published 2015)
“And” between values parts separate entries of the source, which are not always exact repeats. Equal entries are not always repeated. “Also recorded” adds a separate entry of the source. No end group written: not given here.

Legend:
[1] = minimal dose of 40 μg; cited from earlier work
[2] = Cloprostenol sodium alone in male and female subjects (Example 1); assay type: in vivo, human
Method: Cloprostenol sodium was taken by eight male and two female subjects at a dosage of 120 micrograms for every 2501b (113 kg) body weight. The dosage was calculated pro rata based on the weight of the subject involved.
With the female subjects the process was identical. However, the dosage was reduced to 15 μg per shot for menstrual reasons.

hGH receptor = target: T1, hGH receptor (Homo sapiens, UniProt P10912); details: unlike Human Growth Hormone; cited from earlier work
T1 sequence (P10912 19-638): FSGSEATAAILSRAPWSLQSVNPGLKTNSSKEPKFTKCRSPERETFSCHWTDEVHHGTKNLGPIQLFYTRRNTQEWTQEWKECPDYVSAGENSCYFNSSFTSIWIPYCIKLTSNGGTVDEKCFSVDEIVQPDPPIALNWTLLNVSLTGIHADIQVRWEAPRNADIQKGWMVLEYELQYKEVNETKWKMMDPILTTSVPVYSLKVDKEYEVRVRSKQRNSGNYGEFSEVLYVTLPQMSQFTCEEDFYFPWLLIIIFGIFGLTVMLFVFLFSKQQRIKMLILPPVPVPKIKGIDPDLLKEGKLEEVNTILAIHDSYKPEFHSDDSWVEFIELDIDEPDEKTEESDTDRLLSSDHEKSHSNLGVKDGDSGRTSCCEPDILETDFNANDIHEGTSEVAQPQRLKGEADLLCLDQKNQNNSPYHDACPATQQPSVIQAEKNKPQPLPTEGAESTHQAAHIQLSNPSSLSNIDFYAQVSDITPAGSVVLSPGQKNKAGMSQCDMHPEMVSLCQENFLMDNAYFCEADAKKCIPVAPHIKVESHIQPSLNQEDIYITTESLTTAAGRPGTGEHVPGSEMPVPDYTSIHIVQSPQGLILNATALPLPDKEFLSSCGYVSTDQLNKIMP

ob/ob mice = details: cited from earlier work
[3] = system: isolated adipose tissue from obese humans; details: cited from earlier work
[4] = system: isolated adipose tissue from obese rodents; details: cited from earlier work
cell proliferation = details: unlike Human Growth Hormone; cited from earlier work
adipose tissue = details: cited from earlier work
[5] = acute administration in humans, case reports; cited from earlier work
[6] = Four week trial of amino acids 176-191 of human growth hormone alone (Example 2); assay type: in vivo; details: for Bowel Habits (per day): one value per test subject
From the text: Ten subjects were given a daily subcutaneous dose of 2 International Units (IU) of amino acids 176-191 of human growth hormone for a four week trial period.

[7] = cited from earlier work
[8] = ten subjects, daily subcutaneous 2 IU, four weeks

## O=C(O)CCC/C=C\C[C@@H]1C(/C=C/[C@@H](O)COc2cccc(Cl)c2)[C@H](O)C[C@@H]1O (stereo partly drawn) [Cloprostenol, (5Z)-7-[(1R,3R,5S)-2-[(E,3R)-4-(3-chlorophenoxy)-3-hydroxybut-1-enyl]-3,5-dihydroxycyclopentyl]hept-5-enoic acid]
[1]
  Bowel evacuation after dosing: within ten minutes users will have to evacuate their bowels

## O=C(O)CCC/C=C\CC1C(O)CC(O)C1/C=C/C(O)COc1cccc(Cl)c1 (centres unmarked) [Cloprostenol sodium, cloprostenol sodium]
[2]; all recipients
  Willingness to continue use: None of the recipients wished to continue to use this product for more than three days
[2]; females, 15 μg per shot
  Side effects and willingness to continue in females: No female subjects wished to continue using this product due to severe stomach cramps
[2]; males, shots of 30 μg at a time
  Side effects in males: very severe stomach cramps and extensive bowel movements
[2]; same dosing, one comment per test subject
  Comments (stopping of use): Stopped after 2 days; also recorded: Stopped as cramp and pain; also recorded: Stopped after 1st day; also recorded: Stopped after 3 days

## HGH Fragment 177-191: Human growth hormone fragment of the cited studies; shares amino acid sequence with Human Growth Hormone (LRIVQCRSVEGSCGF; ends and bridges not checked; cysteine pairing not given here; UniProt P01241 203-217, looked up, fragment)
hGH receptor
  Competition for the hGH receptor: does not compete for the hGH receptor
ob/ob mice
  Energy expenditure, glucose and fat oxidation: increasing energy expenditure and glucose and fat oxidation
[3]
  In vitro lipogenic activity: decreased lipogenic activity
  In vitro lipolytic activity: increased in vitro lipolytic activity
[4]
  In vitro lipogenic activity: decreased lipogenic activity
  In vitro lipolytic activity: increased in vitro lipolytic activity
Cell proliferation
  Induction of cell proliferation: nor does it induce cell proliferation
Adipose tissue; dosage of 500 μg
  Lipolytic activity in adipose tissue: increase lipolytic activity in adipose tissue
Adipose tissue; in vivo
  Impact on insulin sensitivity: no negative impact on insulin sensitivity

## O=[N+]([O-])c1ccc(O)c([N+](=O)[O-])c1 [DNP, 2,4-Dinitrophenol]
[5]
  Lethal acute administration: 20 to 50 mg/kg

## YLRIVQCRSVEGSCGF (cysteine pairing not given here) [HGH fragment 176-191, freely available commercially]
[6]; Test subject 1, Week 4, start 17%
  Body Fat: 15%
[6]; Test subject 1, Week 4, start 98 kg
  Weight: (96 kg)
[6]; Test subject 1, Week 4, start 217 lb
  Weight: 212 lb
[6]; Test subject 2, Week 4, start 31%
  Body Fat: 28%
[6]; Test subject 2, Week 4, start 92 kg
  Weight: (89 kg)
[6]; Test subject 2, Week 4, start 203 lb
  Weight: 196 lb
[6]; Test subject 3, Week 4, start 18%
  Body Fat: 15%
[6]; Test subject 3, Week 4, start 108 kg
  Weight: (106 kg)
[6]; Test subject 3, Week 4, start 238 lb
  Weight: 233 lb
[6]; Test subject 4, Week 4, start 10%
  Body Fat: 10%
[6]; Test subject 4, Week 4, start 92 kg
  Weight: (92 kg)
[6]; Test subject 4, Week 4, start 203 lb
  Weight: 203 lb
[6]; Test subject 5, Week 4, start 25%
  Body Fat: 24%
[6]; Test subject 5, Week 4, start 105 kg
  Weight: (103 kg)
[6]; Test subject 5, Week 4, start 231 lb
  Weight: 226 lb
[6]; Test subject 6, Week 4, start 32%
  Body Fat: 30%
[6]; Test subject 6, Week 4, start 68 kg
  Weight: (67 kg)
[6]; Test subject 6, Week 4, start 150 lb
  Weight: 147 lb
[6]; Test subject 7, Week 4, start 30%
  Body Fat: 28%
[6]; Test subject 7, Week 4, start 79 kg
  Weight: (76 kg)
[6]; Test subject 7, Week 4, start 173 lb
  Weight: 168 lb
[6]; Test subject 8, Week 4, start 34%
  Body Fat: 30%
[6]; Test subject 8, Week 4, start 108 kg
  Weight: (103 kg)
[6]; Test subject 8, Week 4, start 238 lb
  Weight: 226 lb
[6]; Test subject 9, Week 4, start 10%
  Body Fat: 10%
[6]; Test subject 9, Week 4, start 79 kg
  Weight: (79 kg)
[6]; Test subject 9, Week 4, start 175 lb
  Weight: 175 lb
[6]; Test subject 10, Week 4, start 21%
  Body Fat: 18%
[6]; Test subject 10, Week 4, start 86 kg
  Weight: (83 kg)
[6]; Test subject 10, Week 4, start 189 lb
  Weight: 182 lb
[6]; Week 1, daily subcutaneous 2 IU
  Bowel Habits (per day): 2 per day and 1 per day
[6]; Week 2, daily subcutaneous 2 IU
  Bowel Habits (per day): 2 per day and 1 per day
[6]; Week 3, daily subcutaneous 2 IU
  Bowel Habits (per day): 1 per day and 2 per day
[6]; Week 4, daily subcutaneous 2 IU
  Bowel Habits (per day): 1 per day and 2 per day
[6]; [8]
  Completion of trial: All subjects completed the four week trial
  Reduction in body fat and weight loss: no real reduction in body fat or meaningful weight loss
[7]; clinical trial and experimental users
  Side effects: No side effects have been reported
[7]; humans
  Stimulation of the metabolism of body fat: highly successful at stimulating the metabolism of body fat in humans
[7]; in three months, oral dosing
  Average overall weight loss (fat): 3 kg
[7]; lowest of 6 doses, oral, 3 months
  Most effective daily dose: 1 mg
[7]; three months, more than subjects not taking the peptide
  Weight loss relative to test subjects not taking the peptide: 300%
